{"source": "patent US20230127442A1", "about": "“COMPOSITIONS FOR INCREASING ETHANOL PRODUCTION AND RELATED METHODS” (KEMIN INDUSTRIES, INC., priority 2021, published 2023)", "key": {"[1]": {"test_system": "yeast", "assay": "Corn mash fermentation with synthetic antioxidants, 24 hours at 33° C. then heat stress at 37° C. to 72 hours, ethanol by HPLC (Example 6)", "type": "cell-based", "details": "for increase in ethanol content at 24 hour compared to control: before heat stress", "text": "(§1) Lutein (FloraGLO®): Lutein crystals were purified from marigolds and suspended in oil. Acerola extract (Fortium® A): Acerola fruit grown from Malpighia emarginata, water extract. Spearmint Extract (Neumentix®): Spearmint leaves grown from Mentha spicata L. (Kemin Industries, Inc. proprietary lines KI-MsEM0042, KI-MsEM0110), water extract. Aqueous Tea Extract (AssuriTEA® Green): Tea leaves grown from Camellia sinensis, water extract. Solvent Extracted Tea (Fortium® GT107): Tea leaves grown from Camellia sinensis and extracted with acetone and ethyl acetate, solvent extract. Rosemary Extract (Fortium® M): Rosemary leaves grown from Rosmarinus officinalis extracted with either acetone and TFE or ethanol. Mixed Tocopherols (Fortium® MT): Mixed tocopherols are extracted from vegetable oils with hexane, ethanol, and methanol. Lipid-Soluble Green Tea (GT-FORT): Tea leaves grown from Camellia sinensis and extracted with ethyl acetate, dichloromethane, and ethanol. Synthetic antioxidants: TBHQ (tert-butylhydroquinone) and BHT (butylated hydroxytoluene); tert-butlyhydroquinone was solubilized in propylene glycol and butylated hydroxytoluene was solubilized in ethanol. In alternative embodiments, the synthetic antioxidants are suspended in liquid or solubilized in liquid, including but not limited to water and organic solvents or combinations thereof.\nDry yeast was added to corn mash containing urea, protease, phytase, and glucoamylase. tert-Butylhydroquinone (0.0001, 0.001, or 0.01 mg/L) and butylated hydroxytoluene (0.0001, 0.001, or 0.01 mg/L were added to the corn mash. Corn mash containing no antioxidants was included in the experiment as a Control. The corn mash was fermented in a temperature-controlled incubator shaker for 24 hours at 33° C. Following 24 hours, the yeast in the corn mash were subjected to heat stress by increasing the temperature to 37° C. and the corn mash fermented for another 48 hours for a total fermentation time of 72 hours. Ethanol levels were measured by HPLC."}, "[2]": {"test_system": "yeast", "assay": "Corn mash fermentation, 48 hours, heat stress at 38° C. after 24 hours, ethanol by HPLC (Example 1)", "type": "cell-based", "details": "48 hours total, heat stress 38° C. for last 24 hours", "text": "as §1\nDry yeast was added to corn mash containing urea, protease, phytase, and glucoamylase. Lutein, a fat-soluble antioxidant, was added to the mash at 200, 1,000, or 2,000 mg/L. Dried aqueous tea extract or spearmint extract containing antioxidants were added to the corn mash at 100, 1,000, or 5,000 mg/L. Corn mash containing no added antioxidants was included in the experiment as a control group (Control). The corn mash was fermented in a temperature-controlled incubator shaker for 24 hours at 33° C. Following 24 hours, the yeast in the corn mash were subjected to heat stress by increasing the temperature to 38° C. and the corn mash fermented for another 24 hours for a total fermentation time of 48 hours. Ethanol levels were measured by HPLC."}}}
{"smiles": "Cc1cc(C(C)(C)C)c(O)c(C(C)(C)C)c1", "note": "[butylated hydroxytoluene]", "values": [{"measurement": "change of ethanol content of corn mash through 72 hours compared to control", "setting": "[1]; 72 hours, following heat stress 37° C., 0.0001, 0.001 or 0.01 mg/L", "value": "slightly decreased"}]}
{"smiles": "CC1=C[C@H](O)CC(C)(C)[C@H]1/C=C/C(C)=C/C=C/C(C)=C/C=C/C=C(C)/C=C/C=C(C)/C=C/C1=C(C)C[C@@H](O)CC1(C)C", "note": "[lutein, Lutein]", "values": [{"measurement": "increase in ethanol content of corn mash compared to Control", "setting": "[2]; 200 mg/L", "value": 4, "unit": "%"}, {"measurement": "increase in ethanol content of corn mash compared to Control", "setting": "[2]; 1,000 mg/L", "value": 7, "unit": "%"}, {"measurement": "increase in ethanol content of corn mash compared to Control", "setting": "[2]; 2,000 mg/L", "value": 10, "unit": "%"}]}
{"smiles": "CC(C)(C)c1cc(O)ccc1O", "note": "[tert-Butylhydroquinone, tert-butylhydroquinone]", "values": [{"measurement": "increase in ethanol content at 24 hour compared to control", "setting": "[1]; 0.0001 mg/L, first 24 hours at 33° C.", "value": "up to 0.4%"}, {"measurement": "increase in ethanol content at 24 hour compared to control", "setting": "[1]; 0.01 mg/L, first 24 hours at 33° C.", "value": "up to 1.8%"}, {"measurement": "increase in ethanol content at 72 hour compared to control", "setting": "[1]; 72 hours, following heat stress 37° C., highest increase among 0.0001, 0.001 or 0.01 mg/L", "value": "≤ 2.8", "unit": "%"}, {"measurement": "change of ethanol content of corn mash over the first 24 hours compared to control", "setting": "[1]; first 24 hours at 33° C., FIG. 17, 0.0001, 0.001 or 0.01 mg/L", "value": "decreased"}]}
